Entries after “also recorded” stand apart in the source; their conditions may differ. Read-outs that look alike come from different tables or passages of the source.

Assay [1] deals with T1, dopamine D2 receptor (Rattus norvegicus, UniProt P61169).
T1 construct: from tissue; host or cells: homogenized limbic brain tissue
In words: D-2 binding, 3H-spiroperidol, homogenized limbic brain tissue. On the procedure:
Modest affinity for the dopamine D2 receptor was established by the standard experimental test procedure of Fields, et al., Brain Res., 136, 578 (1977) and Yamamura et al., eds., Neurotransmitter Receptor Binding, Raven Press, N.Y. (1978) wherein homogenized limbic brain tissue is incubated with ^3 H-spiroperidol and various concentrations of test compound, filtered and washed and shaken with Hydrofluor scintillation cocktail (National Diagnostics) and counted in a Packard 460 CD scintillation counter.

Assay [2] concerns the target T2, serotonin 5-HT1A receptor (Rattus norvegicus, UniProt P19327).
T2 construct: following the procedure of Hall et al., J. Neurochem; 44, 1685 (1985); from tissue
T2 sequence (P19327 1-422): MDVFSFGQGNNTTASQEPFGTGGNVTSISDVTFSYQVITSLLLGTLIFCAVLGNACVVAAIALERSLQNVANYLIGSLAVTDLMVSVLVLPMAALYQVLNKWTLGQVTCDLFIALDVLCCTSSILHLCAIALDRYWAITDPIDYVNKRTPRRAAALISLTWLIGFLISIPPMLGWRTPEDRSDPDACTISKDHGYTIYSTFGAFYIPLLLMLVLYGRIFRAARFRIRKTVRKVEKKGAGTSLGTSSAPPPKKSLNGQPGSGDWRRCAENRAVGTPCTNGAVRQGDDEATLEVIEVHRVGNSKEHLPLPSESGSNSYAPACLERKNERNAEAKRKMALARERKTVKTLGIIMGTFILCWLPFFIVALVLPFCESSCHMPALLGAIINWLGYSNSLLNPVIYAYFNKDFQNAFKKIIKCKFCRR
In words: 5-HT1A binding, displacement of [3H] 8-OHDPAT. An excerpt:
High affinity for the serotonin 5-HT1A receptor was established by testing the claimed compound's ability to displace [^3 H] 8-OHDPAT (dipropylaminotetralin) from the 5-HT1A serotonin receptor following the procedure of Hall et al., J. Neurochem. 44, 1685 (1985). […] The anxiolytic activity of buspirone is believed to be, at least partially, due to its 5-HT1A receptor affinity (Vander Maclen et al., Eur. J. Pharmacol. 1986, 129 (1-2) 133-130).

Assay [3] has as its system 5-HT1A receptor. The following applies: cited from earlier work.
Assay [4] relates to serotonin syndrome. Put plainly: ability to produce or antagonize the serotonin syndrome in rats. The class given is in vivo, male Sprague-Dawley CD rats. The following applies: for ED50: Rattus norvegicus. As for the experimental part: Certain of the compounds of this invention were also compared to buspirone in their ability to either produce or antagonize the serotonin syndrome according to the procedure of Smith and Peroutka, Pharmacol. Biochem. Behav. 24:1513-1519, 1986, in which 250-350 g male Sprague-Dawley CD rats (Charles River) are given either test compound or vehicle and placed individually into plexiglass observation cages. Agonist activity of the compound is determined by scoring for the presence of the serotonin syndrome (forepaw treading, head weaving, tremor, hindlimb abduction, flattened body posture, and Straub tail) during the first 15 minutes after compound administration. Antagonist activity is then determined by a challenge with either of the 5-HT1A agonists 5-methoxy-N,N-dimethyltryptamine (5-MeODMT) or 8-hydroxydipropylaminotetralin.

Assay [5] has as its target T2, serotonin 5-HT1A receptor. The following applies: buspirone standard; cited from earlier work.
The mark [6] stands for this setting: antagonist activity, challenge with 5-MeODMT or 8-hydroxydipropylaminotetralin, agonist not specified for these values, read-out: ED50, antagonize the serotonin syndrome.

T1 sequence (P61169 whole entry): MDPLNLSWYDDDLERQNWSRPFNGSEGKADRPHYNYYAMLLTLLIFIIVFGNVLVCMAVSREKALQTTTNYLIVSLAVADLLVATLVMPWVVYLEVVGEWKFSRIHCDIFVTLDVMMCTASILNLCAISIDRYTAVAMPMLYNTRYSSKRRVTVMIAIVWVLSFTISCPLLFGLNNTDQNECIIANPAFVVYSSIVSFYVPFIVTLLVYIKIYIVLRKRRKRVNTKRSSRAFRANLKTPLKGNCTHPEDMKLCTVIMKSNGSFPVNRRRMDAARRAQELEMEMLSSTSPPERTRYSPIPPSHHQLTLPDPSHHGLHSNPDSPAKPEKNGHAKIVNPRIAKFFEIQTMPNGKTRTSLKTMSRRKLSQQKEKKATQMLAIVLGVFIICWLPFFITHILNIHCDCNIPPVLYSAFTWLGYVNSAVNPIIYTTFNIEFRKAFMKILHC

In assay [1], `COc1cccc2cc(CNCCNC(=O)C34CCC(CC3=O)C4(C)C)oc12` (single isomer, unassigned) [Example 5, N-[2-[[(7-Methoxy-2-benzofuranyl)methyl]amino]ethyl]-7,7-dimethyl-2-oxobicyclo[2.2.1]heptane-1-carboxamide] showed an inhibition at 1 µM of 4%. In assay [2], this compound displayed an inhibition at 0.1 µM of 87%. Turning to `O=C1CC2(CCCC2)CC(=O)N1CCCCNCC1COc2ccccc2O1` (single isomer, unassigned; (-)) [(-)-MDL 72832], in assay [3] ((-)-isomer vs dextrorotary isomer), the “binding at the 5-HT1A receptor site relative to the dextrorotary isomer” value was 32 times.

In the case of `COc1cccc2cc(CNCCN3C(=O)C4C5C=CC(C6C=CC65)C4C3=O)oc12` (stereo not shown) [Example 1, 3a, 4,4a, 6a, 7,7a-Hexahydro-2-[2-[[(7-methoxy-2-benzofuranyl)methyl]amino]ethyl]-4,7-etheno-1H-cyclobut[f]isoindole-1,3(2H)-dione], the inhibition at 0.1 µM in assay [2] amounted to 31%. With `COc1cccc2cc(CNCCNC(=O)C34CC5CC(CC(C5)C3)C4)oc12` [Example 2, N-[2-[[(7-Methoxy-2-benzofuranyl)methyl]amino]ethyl]tricyclo[3.3.1.1^3,7]decane-1-carboxamide], the inhibition at 1 µM in assay [1] was 29%. In assay [2], this compound had a half-maximal inhibitory concentration (IC50) of 0.5 nM and an inhibition at 0.1 µM of 100%. Further, the ED50 in assay [4] (setting [6]) amounted to 11.7 mg/kg.

In assay [1], `COc1cccc2cc(CNCCN3C(=O)CC4(CCCC4)CC3=O)oc12` [Example 3, 8-[2-[[(7-Methoxy-2-benzofuranyl)methyl]amino]ethyl]-8-azaspiro[4.5]decane-7,9-dione] gave an inhibition at 1 µM of 72%. Moreover, in assay [2], the inhibition at 0.1 µM stood at 61%. For `COc1cccc2cc(CNCCN3C(=O)C4CC(C3=O)C3C4C4C5CC6C4C6C53)oc12` (stereo not shown) [Example 4, Decahydro-3-[2-[[(7-methoxy-2-benzofuranyl)methyl]amino]ethyl]-1,5-methano-6,7,9-metheno-2H-pentaleno[1,2-d]azepine-2,4(3H)-dione], in that order: 49% and 59%. In assay [1], `COc1cccc2cc(CNCCNC(=O)c3ccc(F)cc3)oc12` [Example 6] displayed an inhibition at 1 µM of 70%. Also, the inhibition at 0.1 µM in assay [2] stood at 87%. `COc1cccc2cc(CNCCNC(=O)C34CC5CC(CC3C5)C4)oc12` [Example 7, N-[2-[[(7-Methoxy-2-benzofuranyl)methyl]amino]ethyl]hexahydro-2,5-methanopentalene-3a(1H)-carboxamide]: the inhibition at 0.1 µM in assay [2] is 99%. For the same compound, the median effective dose (ED50) in assay [4] (setting [6]) came to 15.4 mg/kg. Regarding `COc1cccc2cc(CNCCNC(=O)C3(C)CCCCC3)oc12` [Example 8, N-[2-[[(7-Methoxy-2-benzofuranyl)methyl]amino]ethyl]-1-methyl-1-cyclohexanecarboxamide], in assay [2], the inhibition at 0.1 µM was 92%. Regarding `COc1ccc2cc(CNCCNC(=O)C34CC5CC(CC(C5)C3)C4)oc2c1OC` [Example 9, N-[2-[[(6,7-Dimethoxy-2-benzofuranyl)methyl]amino]ethyl]tricyclo[3.3.1.1^3,7]decane-1-carboxamide], testing at 0.1 µM in assay [2] gave an inhibition of 63%.

Turning to `COc1cccc2cc(CN(C)CCNC(=O)C34CC5CC(CC(C5)C3)C4)oc12` [Example 10, N-[2-[[(7-Methoxy-2-benzofuranyl)methyl]methylamino]ethyl]tricyclo[3.3.1.1^3,7]decane-1-carboxamide], in assay [2], the IC50 was 9 nM and the inhibition at 0.1 µM stood at 90%. In assay [2], `COc1cccc2cc(CNCCNC(=O)C(C)(C)C)oc12` [Example 11, N-[2-[[(7-Methoxy-2-benzofuranyl)methyl]amino]ethyl]-2,2-dimethylpropanamid] yielded an inhibition at 0.1 µM of 38%. Same read-out and setting: next, `O=C(NCCNCc1cc2ccc(OCc3ccccc3)cc2o1)C12CC3CC(CC(C3)C1)C2` [Example 12, N-[2-[[(6-Phenylmethoxy-2-benzofuranyl)methyl]amino]ethyl]tricyclo[3.3.1.1^3,7]decane-1-carboxamide]: 20%; `O=C(NCCNCc1cc2cccc(F)c2o1)C12CC3CC(CC(C3)C1)C2` [Example 13, N-[2-[[(7-Fluoro-2-benzofuranyl)methyl]amino]ethyl]tricyclo[3.3.1.1^3,7]decane-1-carboxamide]: 95%. The same measure, in the same setting: then `O=C(NCCNCc1cc2cc(O)ccc2o1)C12CC3CC(CC(C3)C1)C2` [Example 15, N-[2-[[(5-Hydroxy-2-benzofuranyl)methyl]amino]ethyl]tricyclo[3.3.1.1^3,7]decane-1-carboxamide], with 64%. In assay [2], `O=C(NCCNCc1cc2cccc(Cl)c2o1)C12CC3CC(CC(C3)C1)C2` [Example 16, N-[2-[[(7-Chloro-2-benzofuranyl)methyl]amino]ethyl]tricyclo[3.3.1.1^3,7]decane-1-carboxamide] returned an inhibition at 0.1 µM of 97%. Still for that read-out and setting: next, `O=C(NCCNCc1cc2ccc(O)cc2o1)C12CC3CC(CC(C3)C1)C2` [Example 17, N-[2-[[(6-Hydroxy-2-benzofuranyl)methyl]amino]ethyl]tricyclo[3.3.1.1^3,7]decane-1-carboxamide]: 88%.

Regarding `O=C1CC2(CCCC2)CC(=O)N1CCCCNCC1COc2ccccc2O1` (stereo not shown) [MDL 72832, 8-[4-(1,4-benzodioxan-2-ylmethylamino)butyl]-8-azaspiro[4.5]decane-7,9-dione], in assay [3], the “5-HT1A receptor ligand character (in words)” value was “selective and stereospecific”.

Take `O=C1CC2(CCCC2)CC(=O)N1CCCCN1CCN(c2ncccn2)CC1` [buspirone]: the ED50 in assay [4] (0.25 h, agonist activity, first 15 minutes after administration, read-out: ED50, produced the serotonin syndrome) amounted to 7.3 mg/kg; in assay [4] (antagonist activity, challenge with 5-MeODMT, read-out: ED50, antagonized 5-MeODMT-induced syndrome), 4.6 mg/kg. The “characterization in the serotonin syndrome test” value in assay [4] (in words) is recorded as “partial agonist”. Further, the “affinity for the serotonin 5-HT1A receptor (in words)” value in assay [5] is reported as “high affinity; also recorded: potent affinity”.

Values taken from patent US5134140A, “Psychotropic benzofuran derivatives” (American Home Products Corporation, priority 1991, dated 1992).
